The text below walks through data of patent publication US7928104B2, “7-phenylalkyl substituted 2-quinolinones and 2-quinoxalinones as poly(ADP-ribose) polymerase inhibitors” (priority 2003, dated 2011).

The structures appear in SMILES notation. Where a name gives a salt, the structure may show the parent alone. Where only a bound is given, the exact number is not on record here.

The test system of data set [1] is ischemia and reperfusion of the heart. The conditions noted are these: rabbits, cited from earlier work.
Data set [2] deals with colitis. As to conditions: rats, colitis induced by intraluminal trinitrobenzene sulfonic acid in 50% ethanol; cited from earlier work.
Data set [3] deals with T1, PARP-1 enzyme (Homo sapiens, UniProt P09874).
T1 construct: made in house
T1 sequence (P09874 whole entry): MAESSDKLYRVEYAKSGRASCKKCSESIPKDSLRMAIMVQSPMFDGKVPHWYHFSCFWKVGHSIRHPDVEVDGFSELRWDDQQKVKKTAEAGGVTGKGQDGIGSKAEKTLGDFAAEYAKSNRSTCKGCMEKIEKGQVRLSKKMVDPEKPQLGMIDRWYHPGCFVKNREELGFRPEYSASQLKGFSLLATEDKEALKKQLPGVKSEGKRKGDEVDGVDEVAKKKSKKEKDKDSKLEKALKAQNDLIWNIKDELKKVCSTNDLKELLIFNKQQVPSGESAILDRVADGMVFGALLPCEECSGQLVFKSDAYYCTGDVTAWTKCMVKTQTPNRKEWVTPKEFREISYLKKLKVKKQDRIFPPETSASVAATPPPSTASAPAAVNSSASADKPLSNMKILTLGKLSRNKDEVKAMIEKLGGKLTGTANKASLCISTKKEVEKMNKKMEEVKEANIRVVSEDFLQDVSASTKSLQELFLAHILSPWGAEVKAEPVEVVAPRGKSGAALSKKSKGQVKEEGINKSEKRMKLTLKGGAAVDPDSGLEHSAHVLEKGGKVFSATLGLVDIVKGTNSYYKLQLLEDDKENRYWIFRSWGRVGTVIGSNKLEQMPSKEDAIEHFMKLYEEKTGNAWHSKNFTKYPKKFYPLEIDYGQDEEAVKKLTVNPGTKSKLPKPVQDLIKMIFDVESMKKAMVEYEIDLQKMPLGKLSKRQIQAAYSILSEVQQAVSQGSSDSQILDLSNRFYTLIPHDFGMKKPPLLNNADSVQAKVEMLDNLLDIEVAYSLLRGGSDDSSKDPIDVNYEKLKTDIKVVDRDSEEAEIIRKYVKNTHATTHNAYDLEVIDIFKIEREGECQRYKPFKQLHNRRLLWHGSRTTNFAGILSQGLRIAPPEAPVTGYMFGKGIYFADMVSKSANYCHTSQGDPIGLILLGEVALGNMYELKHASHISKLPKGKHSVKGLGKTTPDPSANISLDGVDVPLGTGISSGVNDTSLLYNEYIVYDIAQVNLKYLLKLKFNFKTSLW
The data set can be described thus: In vitro Scintillation Proximity Assay (SPA) for PARP-1 inhibitory activity. It counts as biochemical. As to conditions: nicked DNA activated PARP-1, [3H]-NAD+, biotinylated histones; read-out: In vitro SPA pIC50 (converted). The procedure: Compounds of the present invention were tested in an in vitro assay based on SPA technology (proprietary to Amersham Pharmacia Biotech).
In principle, the assay relies upon the well established SPA technology for the detection of poly(ADP-ribosyl)ation of biotinylated target proteins, i.e histones. This ribosylation is induced using nicked DNA activated PARP-1 enzyme and [^3H]-nicotinamide adenine dinucleotide ([^3H]-NAD^+) as ADP-ribosyl donor.
As inducer of PARP-1 enzyme activity, nicked DNA was prepared. For this, 25 mg of DNA (supplier: Sigma) was dissolved in 25 ml DNAse buffer (10 mM Tris-HCl, pH 7.4; 0.5 mg/ml Bovine Serum Albumine (BSA); 5 mM MgCl2.6H2O and 1 mM KCl) to which 50 μl DNAse solution (1 mg/ml in 0.15 M NaCl) was added. After an incubation of 90 min. at 37° C., the reaction was terminated by adding 1.45 g NaCl, followed by a further incubation at 58° C. for 15 min. The reaction mixture was cooled on ice and dialysed at 4° C. for respectively 1.5 and 2 hours against 1.5 l of 0.2 M KCl, and twice against 1.5 l of 0.01 M KCl for 1.5 and 2 h respectively. The mixture was aliquoted and stored at −20° C. Histones (1 mg/ml, type II-A, supplier: Sigma) were biotinylated using the biotinylation kit of Amersham and stored aliquoted at −20° C. A stock solution of 100 mg/ml SPA poly(vinyl toluene) (PVT) beads (supplier: Amersham) was made in PBS. A stock solution of [^3H]-NAD^+ was made by adding 120 μl of [^3H]-NAD^+ (0.1 mCi/ml, supplier: NEN) to 6 ml incubation buffer (50 mM Tris/HCl, pH 8; 0.2 mM DTT; 4 mM MgCl2). A solution of 4 mM NAD^+ (supplier: Roche) was made in incubation buffer (from a 100 mM stock solution in water stored at −20° C.). The PARP-1 enzyme was produced using art known techniques, i.e. cloning and expression of the protein starting from human liver cDNA. Information concerning the used protein sequence of the PARP-1 enzyme including literature references can be found in the Swiss-Prot database under primary accession number P09874. Biotinylated histones and PVT-SPA beads were mixed and pre-incubated for 30 min. at room temperature. PARP-1 enzyme (concentration was lot dependent) was mixed with the nicked DNA and the mixture was pre-incubated for 30 min. at 4° C. Equal parts of this histones/PVT-SPA beads solution and PARP-1 enzyme/DNA solution were mixed and 75 μl of this mixture together with 1 μl of compound in DMSO and 25 μl of [^3H]-NAD^+ was added per well into a 96-well microtiterplate. The final concentrations in the incubation mixture were 2 μg/ml for the biotinylated histones, 2 mg/ml for the PVT-SPA beads, 2 μg/ml for the nicked DNA and between 5-10 μg/ml for the PARP-1 enzyme. After incubation of the mixture for 15 min. at room temperature, the reaction was terminated by adding 100 μl of 4 mM NAD^+ in incubation buffer (final concentration 2 mM) and plates were mixed. The beads were allowed to sediment for at least 15 min. and plates transferred to a TopCountNXT™ (Packard) for scintillation counting, values were expressed as counts per minute (cpm). For each experiment, controls (containing PARP-1 enzyme and DMSO without compound), a blank incubation (containing DMSO but no PARP-1 enzyme or compound) and samples (containing PARP-1 enzyme and compound dissolved in DMSO) were run in parallel. All compounds tested were dissolved and eventually further diluted in DMSO. […] In each test, the blank value was subtracted from both the control and the sample values. The control sample represented maximal PARP-1 enzyme activity. For each sample, the amount of cpm was expressed as a percentage of the mean cpm value of the controls. When appropriate, IC50-values (concentration of the drug, needed to reduce the PARP-1 enzyme activity to 50% of the control) were computed using linear interpolation between the experimental points just above and below the 50% level. Herein the effects of test compounds are expressed as pIC50 (the negative log value of the IC50-value). […]
Background: SPA uses beads or plates that emit light when radiolabelled molecules are held near them.

The target of data set [4] is T1, PARP-1 enzyme. The data set can be described thus: In vitro filtration assay for PARP-1 inhibitory activity. The conditions noted are these: nicked DNA activated PARP-1, [32P]-NAD+, histones; read-out: In vitro filtration assay pIC50 (converted). It counts as biochemical. How it is done:
Compounds of the present invention were tested in an in vitro filtration assay assessing PARP-1 activity (triggered in the presence of nicked DNA) by means of its histone poly(ADP-ribosyl)ation activity using [^32P]-NAD as ADP-ribosyl donor. The radioactive ribosylated histones were precipitated by trichloroacetic acid (TCA) in 96-well filterplates and the incorporated [^32P] measured using a scintillation counter
A mixture of histones (stock solution: 5 mg/ml in H2O), NAD^+ (stock solution: 100 mM in H2O), and [^32P]-NAD^+ in incubation buffer (50 mM Tris/HCl, pH 8; 0.2 mM DTT; 4 mM MgCl2) was made. A mixture of the PARP-1 enzyme (5-10 μg/ml) and nicked DNA was also made. The nicked DNA was prepared as described in the in vitro SPA for PARP-1 inhibitory activity. Seventy-five μl of the PARP-1 enzyme/DNA mixture together with 1 μl of compound in DMSO and 25 μl of histones-NAD^+/[^32P]-NAD^+ mixture was added per well of a 96-well filterplate (0.45 μm, supplier Millipore). The final concentrations in the incubation mixture were 2 μg/ml for the histones, 0.1 mM for the NAD^+, […] (0.5 μC) for the [^32P]-NAD^+ and 2 μg/ml for the nicked DNA. Plates were incubated for 15 min. at room temperature and the reaction was terminated by the addition of 10 μl ice cold 100% TCA followed by the addition of 10 μl ice-cold BSA solution (1% in H2O). The protein fraction was allowed to precipitate for 10 min. at 4° C. and plates were vacuum filtered. The plates were subsequently washed with, for each well, 1 ml of 10% ice cold TCA, 1 ml of 5% ice cold TCA and 1 ml of 5% TCA at room temperature. Finally 100 μl of scintillation solution (Microscint 40, Packard) was added to each well and the plates were transferred to a TopCountNXT™ (supplier: Packard) for scintillation counting and values were expressed as counts per minute (cpm). For each experiment, controls (containing PARP-1 enzyme and DMSO without compound), a blank incubation (containing DMSO but no PARP-1 enzyme or compound) and samples (containing PARP-1 enzyme and compound dissolved in DMSO) were run in parallel. All compounds tested were dissolved and eventually further diluted in DMSO. In first instance, compounds were tested at a concentration of 10^−5M. […] In each test, the blank value was subtracted from both the control and the sample values. The control sample represented maximal PARP-1 enzyme activity. For each sample, the amount of cpm was expressed as a percentage of the mean cpm value of the controls. When appropriate, IC50-values (concentration of the drug, needed to reduce the PARP-1 enzyme activity to 50% of the control) were computed using linear interpolation between the experimental points just above and below the 50% level. Herein the effects of test compounds are expressed as pIC50 (the negative log value of the IC50−-value). As a reference compound, 4-amino-1,8-naphthalimide was included to validate the filtration assay.

For `CCc1nc2ccc(C(c3ccccc3)N3CCC(NCCOC)CC3)cc2[nH]c1=O` (stereo not shown) (as salt: salt) [Compound 2], the melting point was found to be 98 °C.

For `Oc1cccc2c(O)nccc12` [1,5-dihydroxyisoquinoline], in data set [1] (single injection 1 mg/kg), the “reduction in infarct size” value is reported as 38-48%.

For `NC(=O)c1cccc(N)c1` [3-amino-benzamide], the “reduction in infarct size in the heart” value in data set [1] (single injection 10 mg/kg, one minute before occlusion or one minute before reperfusion) was 32-42%. In addition, the “effect on inflammatory response, distal colon” value in data set [2] is reported as “reduced the inflammatory response”.

`CCc1nc2ccc(CC(c3ccccc3)n3ccnc3)cc2[nH]c1=O` (stereo not shown) [Compound 1]: the melting point was 166 °C. Besides, the IC50 in data set [3] is 206 nM.

Regarding `CCc1nc2ccc(C(c3ccccc3)N3CCC(NCCOC)CC3)cc2[nH]c1=O` (stereo not shown) [Compound 2], the IC50 in data set [3] is 7.5 nM.

`Cc1cc2ccc(C(CCN(C)C)c3ccccc3)cc2[nH]c1=O` (stereo not shown) [Compound 3]: the IC50 was 899 nM in data set [3] and 9890 nM in data set [4].

In turn, `CCc1nc2ccc(C(O)c3ccccc3)cc2[nH]c1=O` (stereo not shown) [Compound 4] showed a melting point of 202 °C. In addition, in data set [3], the IC50 is 409 nM.

On to `CCc1nc2ccc(C(c3ccc(Cl)cc3)N3CCCCC3)cc2[nH]c1=O` (stereo not shown) [Compound 5], for which the IC50 was 236 nM in data set [3] and 693 nM in data set [4].

With `CCOC(=O)C1CCN(C(c2ccc(Cl)cc2)c2ccc3nc(CC)c(=O)[nH]c3c2)CC1` (stereo not shown) [Compound 6], the IC50 in data set [3] was 818 nM.

For the compound `CCc1nc2ccc(CC(c3ccc(Cl)cc3)N3CCCC3)cc2[nH]c1=O` (stereo not shown) [Compound 7], the IC50 in data set [3] is 586 nM.

As for `Cc1nc2ccc(C(c3ccc(C(C)C)cc3)n3ccnc3)cc2[nH]c1=O` (stereo not shown) [Compound 8], the IC50 in data set [3] was 411 nM; in data set [4], 1410 nM.

Regarding `CCc1nc2ccc(C(NCCCN(C)Cc3ccccc3)c3ccccc3)cc2[nH]c1=O` (stereo not shown) [Compound 9], in data set [3], the IC50 was 312 nM.

On to `CCc1nc2ccc(CC(O)c3ccc(Cl)cc3)cc2[nH]c1=O` (stereo not shown) [Compound 10], for which the IC50 in data set [3] is 552 nM.

With `CCc1nc2ccc(CC(O)c3ccccc3)cc2[nH]c1=O` (stereo not shown) [Compound 11], the IC50 in data set [3] is 914 nM.

On to `CCc1nc2ccc(C(c3cccc(F)c3)n3ccnc3)cc2[nH]c1=O` (stereo not shown) [Compound 12], for which the values for the IC50 in data set [3] and in data set [4] were 728 nM and 3600 nM, respectively.

With `CCc1nc2ccc(C(c3ccccc3F)n3ccnc3)cc2[nH]c1=O` (stereo not shown) [Compound 13], the IC50 in data set [3] is 718 nM; in data set [4], 4940 nM.

In the case of `CCc1nc2ccc(C(c3ccccc3)n3cccn3)cc2[nH]c1=O` (stereo not shown) [Compound 14], the IC50 was 1600 nM in data set [3] and 2670 nM in data set [4].

For `CCc1nc2ccc(CC(c3ccc(Cl)cc3)n3ccnc3)cc2[nH]c1=O` (stereo not shown) [Compound 15], the IC50 in data set [3] is 329 nM; in data set [4], 6380 nM.

Turning to `CCc1nc2ccc(C(c3ccccc3)c3cccnc3)cc2[nH]c1=O` (stereo not shown) [Compound 16], the IC50 is 577 nM in data set [3] and 4530 nM in data set [4].

For `CCc1nc2ccc(C(c3ccccc3)n3cncn3)cc2[nH]c1=O` (stereo not shown) [Compound 17], in data set [3], the IC50 is 334 nM.

In the case of `CCc1nc2ccc(C(c3ccc(F)cc3)n3ccnc3)cc2[nH]c1=O` (stereo not shown) [Compound 18], the IC50 is 1000 nM in data set [3] and 4130 nM in data set [4].

Consider `CCc1nc2ccc(C(c3ccccc3)n3ccnc3)cc2[nH]c1=O` (stereo not shown) [Compound 19], for which the IC50 was 231 nM in data set [3] and 615 nM in data set [4].

Consider `Cc1nc2ccc(C(c3ccc(Cl)cc3)n3ccnc3)cc2[nH]c1=O` (stereo not shown) [Compound 20, 7-[(4-chlorophenyl)-1H-imidazol-1-ylmethyl]-3-methyl-2(1H)-quinoxalinone], for which the IC50 in data set [3] was 4110 nM; in data set [4], more than 10000 nM.

One may read the melting point as the temperature of the solid-liquid transition.
